Calls of active or inactive are those of the source. No cut-off for these calls is given here.
What was measured:
[1] = biological target: T1, Tyrosinase (Agaricus bisporus) (UniProt O42713)
T1 sequence (whole entry): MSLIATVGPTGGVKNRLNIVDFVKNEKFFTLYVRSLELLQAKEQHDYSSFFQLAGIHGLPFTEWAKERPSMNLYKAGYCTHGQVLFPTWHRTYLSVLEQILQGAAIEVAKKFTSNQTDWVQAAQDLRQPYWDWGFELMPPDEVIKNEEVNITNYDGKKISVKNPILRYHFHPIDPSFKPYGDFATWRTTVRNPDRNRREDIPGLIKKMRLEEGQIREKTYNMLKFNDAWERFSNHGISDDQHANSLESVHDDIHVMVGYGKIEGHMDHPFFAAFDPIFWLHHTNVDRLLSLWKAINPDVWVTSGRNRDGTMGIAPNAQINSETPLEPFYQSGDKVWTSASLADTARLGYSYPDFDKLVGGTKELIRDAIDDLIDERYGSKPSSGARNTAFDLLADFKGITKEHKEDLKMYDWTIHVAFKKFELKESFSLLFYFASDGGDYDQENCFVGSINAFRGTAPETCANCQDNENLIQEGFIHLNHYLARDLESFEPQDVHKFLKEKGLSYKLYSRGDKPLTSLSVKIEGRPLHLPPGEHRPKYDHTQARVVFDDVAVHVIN
Description: Inhibition of monophenolase activity of mushroom tyrosinase assessed as inhibition constant for enzyme-substrate-inhibitor complex by measuring reduction in dopachrome formation using L-Tyrosine substrate by UV-Vis spectrophotometry

[2] = biological target: T2, Tyrosinase (Agaricus bisporus, UniProt O42713)
T2 sequence (O42713 whole entry): T1 sequence (whole entry)

[3] = biological target: T2, Tyrosinase; remark: listed apart in the source
Description: Mixed type inhibition of diphenolase activity of mushroom tyrosinase assessed as reduction in dopachrome formation using L-DOPA substrate by UV-Vis spectrophotometry based Dixon plot analysis

[4] = biological target: T1, Tyrosinase (Agaricus bisporus); assay: Binding affinity to mushroom tyrosinase assessed as Stern-Volmer quenching constant by fluorescence spectrophotometry
[5] = biological target: T2, Tyrosinase; assay: Inhibition of diphenolase activity of mushroom tyrosinase assessed as reduction in dopachrome formation using L-DOPA substrate by UV-Vis spectrophotometry
[6] = biological target: T1, Tyrosinase (Agaricus bisporus); remark: listed apart in the source
Description: Inhibition of diphenolase activity of mushroom tyrosinase assessed as inhibition constant for enzyme-substrate-inhibitor complex by measuring reduction in dopachrome formation using L-DOPA substrate by UV-Vis spectrophotometry

[7] = biological target: T2, Tyrosinase; remark: listed apart in the source
Description: Inhibition of monophenolase activity of mushroom tyrosinase assessed as inhibition constant for free enzyme-inhibitor complex by measuring reduction in dopachrome formation using L-Tyrosine substrate by UV-Vis spectrophotometry

[8] = biological target: T2, Tyrosinase; assay: Inhibition of monophenolase activity of mushroom tyrosinase assessed as reduction in dopachrome formation using L-Tyrosine substrate by UV-Vis spectrophotometry
[9] = biological target: T1, Tyrosinase (Agaricus bisporus); assay: Binding affinity to mushroom tyrosinase assessed as binding constant by fluorescence spectrophotometry
[10] = biological target: T1, Tyrosinase (Agaricus bisporus); assay: Inhibition of monophenolase activity of mushroom tyrosinase assessed as increase in lag period of monophenolase for oxidation of L-tyrosine substrate at 0.5 to 16 uM by UV-Vis spectrophotometry
[11] = biological target: T2, Tyrosinase; remark: listed apart in the source
Description: Inhibition of diphenolase activity of mushroom tyrosinase assessed as inhibition constant for free enzyme-inhibitor complex by measuring reduction in dopachrome formation using L-DOPA substrate by UV-Vis spectrophotometry

[12] = biological target: T1, Tyrosinase (Agaricus bisporus); assay: Inhibition of monophenolase activity of mushroom tyrosinase assessed as reduction in steady state rate monophenolase activity for oxidation of L-tyrosine substrate at 0.5 to 16 uM by UV-Vis spectrophotometry
[13] = biological target: T2, Tyrosinase; remark: listed apart in the source
Description: Competitive type inhibition of monophenolase activity of mushroom tyrosinase assessed as reduction in dopachrome formation using L-Tyrosine substrate by UV-Vis spectrophotometry based Dixon plot analysis

[14] = biological target: T2, Tyrosinase; remark: listed apart in the source
Description: Competitive type inhibition of diphenolase activity of mushroom tyrosinase assessed as reduction in dopachrome formation using L-DOPA substrate by UV-Vis spectrophotometry based Dixon plot analysis

[15] = biological target: T1, Tyrosinase (Agaricus bisporus); assay: Binding affinity to mushroom tyrosinase by fluorescence spectrophotometry
[16] = biological target: T1, Tyrosinase (Agaricus bisporus); assay: Inhibition of monophenolase activity of mushroom tyrosinase assessed as reduction in N-acetyl-L-dopaquinone formation at 25 uM using N-acetyl-L-tyrosine substrate incubated up to 60 mins by HPLC analysis
[17] = biological target: T1, Tyrosinase (Agaricus bisporus); assay: Inhibition of monophenolase activity of mushroom tyrosinase assessed as lag time period of monophenolase for oxidation of L-tyrosine substrate at 16 uM by UV-Vis spectrophotometry (reference value: […] secs)

SMILES	Kis [1] [µM]	Ki [2] [µM]	Ki [3] [µM]	KSV [4] [×10⁴ L/mol]	IC50 [5] [µM]	Kis [6] [µM]	Ki [7] [µM]	IC50 [8] [µM]	KA [9] [×10⁶ L/mol]	inhibition [10]	Ki [11] [µM]	inhibition [12]	Ki [13] [µM]	Ki [14] [µM]	Activity [15]	inhibition [16]	TIME [17] [h]
COc1cc([C@@H]2Oc3c(O)cc(-c4oc5cc(O)cc(O)c5c(=O)c4O)cc3[C@H]2CO)ccc1O	6.4	4.7	36.7	0.0634	35.9	146	4.6	7.6	2.25	Dose-dependent effect	38.3	Dose-dependent effect	–	–	–	–	–
COc1cc([C@H]2Oc3cc(O)cc(O)c3C(=O)[C@@H]2O)ccc1O	–	–	–	0.0222	150	–	–	51.2	0.849	–	–	–	20.5	73.4	–	–	–
O=C1c2c(O)cc(O)cc2O[C@H](c2ccc(O)c(O)c2)[C@H]1O	–	–	–	0.0492	–	–	–	–	0.918	–	–	–	–	–	–	–	–
COc1cc(C2Oc3cc([C@H]4Oc5cc(O)cc(O)c5C(=O)[C@@H]4O)ccc3OC2CO)ccc1O (mixture of isomers) [SILIBININ]	3.7	0.7	8.5	0.261	12.1	27.6	0.7	1.7	6.16	Dose-dependent effect	8.4	Dose-dependent effect	–	–	–	–	–
O=C1c2c(O)cc(O)cc2O[C@H](c2ccc(O)cc2)[C@H]1O [DIHYDROKAEMPFEROL]	–	–	–	0.0199	> 200	–	–	73.6	0.094	–	–	–	42	–	Dose-dependent effect	–	–
COc1cc([C@H]2Oc3ccc([C@H]4Oc5cc(O)cc(O)c5C(=O)[C@@H]4O)cc3O[C@@H]2CO)ccc1O [ISOSILYBIN A]	3.2	1.1	12.4	0.267	16.7	29.5	1.1	2.1	6.31	Dose-dependent effect	12.3	Dose-dependent effect	–	–	Dose-dependent effect	Active	0.0833
COc1cc([C@@H]2Oc3ccc([C@H]4Oc5cc(O)cc(O)c5C(=O)[C@@H]4O)cc3O[C@H]2CO)ccc1O [ISOSILYBIN B]	8	4.2	11.6	0.0882	19.8	25.2	4.3	4.9	2.42	Dose-dependent effect	12.7	Dose-dependent effect	–	–	–	–	–
COc1cc([C@@H]2Oc3c(O)cc([C@H]4Oc5cc(O)cc(O)c5C(=O)[C@@H]4O)cc3[C@H]2CO)ccc1O [SILICRISTIN A]	2.9	2.1	15.4	0.192	28.8	37.3	2.1	3.2	3.55	Dose-dependent effect	15.2	Dose-dependent effect	–	–	–	–	–
COc1cc([C@H]2Oc3c(O)cc([C@H]4Oc5cc(O)cc(O)c5C(=O)[C@@H]4O)cc3[C@@H]2CO)ccc1O [SILICRISTIN B]	14	2.8	35.5	0.109	44.9	91.3	2.8	4.5	2.88	Dose-dependent effect	34.7	Dose-dependent effect	–	–	–	–	–
COc1cc([C@@H]2[C@H]3CO[C@@]4(O)C(=O)[C@@H]2C=C([C@H]2Oc5cc(O)cc(O)c5C(=O)[C@@H]2O)[C@@H]34)ccc1O [SILIDIANIN]	2.3	1.7	14.9	0.193	16.5	90.8	2.1	2.6	5.81	Dose-dependent effect	15	Dose-dependent effect	–	–	–	–	–

Source: ChEMBL document CHEMBL4402507, “Tyrosinase inhibitory study of flavonolignans from the seeds of Silybum marianum (Milk thistle)” (Bioorg Med Chem, 2019)
